Experimental data taken from US20080262014A1, “Use of Camptothecin Derivatives for the Treatment of Proliferative Diseases in a Fixed Dosing Regimen” (priority 2004, published 2008).
“Also recorded” adds a separate entry of the source.

Key:
[1] = Clinical pharmacokinetics (disposition) of oral gimatecan in phase I patients with refractory malignancies; type: in vivo
Experimental: The disposition of oral gimatecan is evaluated in patients with refractory malignancies administered on a daily schedule for 5, 10, or 15 consecutive days or a weekly schedule for 3 weeks of a 28 day cycle. The disposition of gimatecan using these four schedules are depicted in FIGS. 3 (a-d). Clinical pharmacokinetics is assessed on the first and last days of the first cycle of daily dosing. […] However, patients were dosed based on their body surface area. Patients who responded to gimatecan had taken 0.45 mg, 0.9 mg, 1.1 mg or 1.6 mg which made it difficult to pick an effective dose.

[2] = clinical; design: species or system patients; conditions: human, in vivo
From the text: The optimal dose and schedule of gimatecan stems mainly from the putative therapeutic window identified from the PK/PD analysis of completed phase I data. The target range of cumulative gimatecan cycle exposure (AUC 5,000-10,000 (ng)(hr)/mL) was selected because it produces partial responses and yet is below the exposure where grade III/IV neutropenia and thrombocytopenia adverse events became evident (FIG. 1). […] This may explain why toxicity could not be differentiated among the three schedules; all three schedules exceeded the putative effective daily exposure and were in a potentially toxic range. […] The flat dose is dosed every third day, or once every three days, or every 72 hours, or at one half-life to avoid potential accumulation. The starting doses are chosen to target a systemic exposure of 200-400 (ng)(hr)/mL (the “therapeutic window”) once every three days.

Q: For CC[C@@]1(O)C(=O)OCc2c1cc1n(c2=O)Cc2c-1nc1ccccc1c2/C=N/OC(C)(C)C [gimatecan, 7-(t-butoxy)imino methyl camptothecin], which “body surface area as predictor of gimatecan clearance” value ([1]; 78 patients receiving four schedules) is on record?
A: lack of correlation; also recorded: not a good predictor; also recorded: not predicted by body surface area

Q: And the half-life ([1]; human, in vivo, oral, estimated from 10 patients receiving the weekly schedule, read-out: terminal harmonic mean half-life (converted))?
A: 3.58 days

Q: What about the “apparent oral clearance, dependence on dose” value ([1]; oral, four schedules) of the same compound?
A: independent of dose

Q: And the drug accumulation ([1]; weekly and daily schedule)?
A: Drug accumulation is observed

Q: And the AUC at 1 day [2]?
A: 200 to 400 ng·h/mL

Q: What about the AUC at 1 cycle ([2]; iv) of the same compound?
A: 5000 to 10000 ng·h/mL
